This passage reports IC50 results from patent US10183950B2, “Thienopyrimidine inhibitors of atypical protein kinase C” (Cancer Research Technology Limited, priority 2011, dated 2019).

The assay concerns the target T1, kinase-domain human PKCι (Homo sapiens, UniProt P41743).
T1 construct: Recombinant, kinase-domain human PKCι is expressed and purified in-house; made in house
T1 sequence (P41743 254-522 limits assumed): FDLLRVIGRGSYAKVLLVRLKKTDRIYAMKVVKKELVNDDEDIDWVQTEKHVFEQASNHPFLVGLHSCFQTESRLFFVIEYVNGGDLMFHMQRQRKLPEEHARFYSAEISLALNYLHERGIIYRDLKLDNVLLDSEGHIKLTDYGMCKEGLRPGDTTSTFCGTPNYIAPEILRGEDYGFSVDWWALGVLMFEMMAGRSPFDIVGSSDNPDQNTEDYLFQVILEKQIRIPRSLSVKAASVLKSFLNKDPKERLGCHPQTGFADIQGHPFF
Briefly: PKCι IC50 IMAP fluorescence polarisation assay, kinase-domain enzyme. The class given is biochemical. Conditions: kinase domain PKCi at 2 μM ATP; read-out: IC50 in IMAP assay against kinase domain PKCi (Activity). As to the method:
Assays are based on the ability of PKCι to phosphorylate a commercially available peptide substrate in vitro. […] Recombinant, full-length human PKCι expressed in Sf21 insect cells is also commercially available. Recombinant, kinase-domain human PKCι is expressed and purified in-house.
The procedure below explains how dose response curves for inhibitors of PKCι are obtained.
Compounds to be tested are dissolved in 100% DMSO. […] 1 μl is plated into 384 well black low-binding flat bottomed assay plates which are used immediately. Dilutions and additions of compound to assay plates are carried out using Matrix WellMate® and Matrix PlateMate® Plus liquid handling systems.
The final concentration of peptide substrate in the assay is 100 nM. […] Relevant controls are included, namely no compound and no enzyme. […] The reaction is allowed to incubate for 60 minutes at room temperature, before the reaction is stopped and developed by the addition of 20 μl IMAP™ development reagent (Molecular Devices). IMAP development reagent consists of 0.25% (v/v) IMAP progressive binding reagent, 17% (v/v) IMAP progressive binding buffer A and 3% (v/v) IMAP progressive binding buffer B. The plates are then incubated for 2 hours at room temperature before being read using an appropriate plate reader, for example a Molecular Devices HT Analyst or a BMG Pherastar.
A general note: Fluorescence polarisation rises when a labelled molecule tumbles more slowly, as on binding a larger partner.
In the case of `CC(C)C[C@@H](N)CNc1nc(-c2ccncc2)nc2sc3c(c12)CCCC3` [compound 16, (R)-4-Methyl-N*1*-(2-pyridin-4-yl-5,6,7,8-tetrahydro-benzo[4,5]thieno[2,3-d]pyrimidin-4-yl)-pentane-1,2-diamine], the IC50 is 1 to 10 µM. In the case of `CC[C@@H](N)CNc1nc(-c2ccncc2)nc2sc3c(c12)CCCC3` [compound 17, (R)-N*1*-(2-Pyridin-4-yl-5,6,7,8-tetrahydro-benzo[4,5]thieno[2,3-d]pyrimidin-4-yl)-butane-1,2-diamine], the half-inhibitory concentration (IC50) is 1 to 10 µM. For `c1cc(-c2nc(N3C[C@@H]4C[C@H]3CN4)c3c4c(sc3n2)CCCC4)ccn1` [compound 18, 4-(1S,4S)-2,5-Diaza-bicyclo[2.2.1]hept-2-yl-2-pyridin-4-yl-5,6,7,8-tetrahydro-benzo[4,5]thieno[2,3-d]pyrimidine], the IC50 is 0.1 to 1 µM. Turning to `c1cc(-c2nc(N[C@@H]3CCNC3)c3c4c(sc3n2)CCCC4)ccn1` [compound 19, (2-pyridin-4-yl-5,6,7,8-tetrahydro-benzo[4,5]thieno[2,3-d]pyrimidin-4-yl)-(R)-pyrrolidin-3-yl-amine], the IC50 lay in the range of 0.1 to 1 µM. On to `c1cc(-c2nc(N[C@H]3CCNC3)c3c4c(sc3n2)CCCC4)ccn1` [compound 20, (2-Pyridin-4-yl-5,6,7,8-tetrahydro-benzo[4,5]thieno[2,3-d]pyrimidin-4-yl)-(S)-pyrrolidin-3-yl-amine], for which the half-maximal inhibitory concentration (IC50) was in the range of 1 to 10 µM. Consider `CC1CCc2c(sc3nc(-c4ccncc4)nc(NCCN)c23)C1` (centres unmarked) [compound 21, N*1*-(7-Methyl-2-pyridin-4-yl-5,6,7,8-tetrahydro-benzo[4,5]thieno[2,3-d]pyrimidin-4-yl)-ethane-1,2-diamine], for which the IC50 fell in the range of 0.1 to 1 µM.

Take `CC1CCc2c(sc3nc(-c4ccncc4)nc(NC[C@H](C)N)c23)C1` (stereo partly drawn) [compound 22, (S)-N*1*-(7-Methyl-2-pyridin-4-yl-5,6,7,8-tetrahydro-benzo[4,5]thieno[2,3-d]pyrimidin-4-yl)-propane-1,2-diamine]: the IC50 fell in the range of 1 to 10 µM.

As for `CC1CCc2c(sc3nc(-c4ccncc4)nc(NC[C@@H](C)N)c23)C1` (stereo partly drawn) [compound 23, (R)-N*1*-(7-Methyl-2-pyridin-4-yl-5,6,7,8-tetrahydro-benzo[4,5]thieno[2,3-d]pyrimidin-4-yl)-propane-1,2-diamine], the IC50 was 1 to 10 µM. With `NCCNc1nc(-c2ccncc2)nc2sc3c(c12)CCCCCC3` [compound 24, N*1*-(2-Pyridin-4-yl-5,6,7,8,9,10-hexahydro-11-thia-1,3-diaza-cycloocta[a]inden-4-yl)-ethane-1,2-diamine], the IC50 fell in the range of 0.1 to 1 µM. For the compound `C[C@H](N)CNc1nc(-c2ccncc2)nc2sc3c(c12)CCCCCC3` [compound 25, (S)-N*1*-(2-Pyridin-4-yl-5,6,7,8,9, 10-hexahydro-11-thia-1,3-diaza-cycloocta[a]inden-4-yl)-propane-1,2-diamine], the IC50 lay within 1 to 10 µM. Turning to `C[C@@H](N)CNc1nc(-c2ccncc2)nc2sc3c(c12)CCCCCC3` [compound 26, (R)-N*1*-(2-Pyridin-4-yl-5,6,7,8,9, 10-hexahydro-11-thia-1,3-diaza-cycloocta[a]inden-4-yl)-propane-1,2-diamine], the half-inhibitory concentration (IC50) lay within 1 to 10 µM. Turning to `CC(C)Cc1csc2nc(-c3ccncc3)nc(NCCN)c12` [compound 28, N*1*-(5-Isobutyl-2-pyridin-4-yl-thieno[2,3-d]pyrimidin-4-yl)-ethane-1,2-diamine], the IC50 was 0.1 to 1 µM. The same measure for `CC(C)Cc1csc2nc(-c3ccncc3)nc(NC[C@H](C)N)c12` [compound 29, (S)-N*1*-(5-Isobutyl-2-pyridin-4-yl-thieno[2,3-d]pyrimidin-4-yl)-propane-1,2-diamine]: 0.1 to 1 µM. In the case of `CC(C)Cc1csc2nc(-c3ccncc3)nc(NC[C@@H](C)N)c12` [compound 30, (R)-N*1*-(5-Isobutyl-2-pyridin-4-yl-thieno[2,3-d]pyrimidin-4-yl)-propane-1,2-diamine], the half-inhibitory concentration (IC50) was in the range of 1 to 10 µM.

As for `CCc1c(C)sc2nc(-c3ccncc3)nc(NC[C@H](C)N)c12` [compound 31, (S)-N*1*-(5-Ethyl-6-methyl-2-pyridin-4-yl-thieno[2,3-d]pyrimidin-4-yl)-propane-1,2-diamine], the half-maximal inhibitory concentration (IC50) is 1 to 10 µM.

For the compound `CCc1c(C)sc2nc(-c3ccncc3)nc(NC[C@@H](C)N)c12` [compound 32, (R)-N*1*-(5-Ethyl-6-methyl-2-pyridin-4-yl-thieno[2,3-d]pyrimidin-4-yl)-propane-1,2-diamine], the IC50 lay within 10 to 40 µM. For `CCc1cc2c(NCCN)nc(-c3ccncc3)nc2s1` [compound 33, N*1*-(6-Ethyl-2-pyridin-4-yl-thieno[2,3-d]pyrimidin-4-yl)-ethane-1,2-diamine] the value was 1 to 10 µM; for `CCc1cc2c(NC[C@H](C)N)nc(-c3ccncc3)nc2s1` [compound 34, (S)-N*1*-(6-Ethyl-2-pyridin-4-yl-thieno[2,3-d]pyrimidin-4-yl)-propane-1,2-diamine], 1 to 10 µM; for `CCc1cc2c(NC[C@@H](C)N)nc(-c3ccncc3)nc2s1` [compound 35, (R)-N*1*-(6-Ethyl-2-pyridin-4-yl-thieno[2,3-d]pyrimidin-4-yl)-propane-1,2-diamine], 1 to 10 µM. `Cc1sc2nc(-c3ccncc3)nc(NCCN)c2c1C` [compound 36, N*1*-(5,6-Dimethyl-2-pyridin-4-yl-thieno[2,3-d]pyrimidin-4-yl)-ethane-1,2-diamine]: the IC50 was in the range of 0.1 to 1 µM. With `Cc1sc2nc(-c3ccncc3)nc(NC[C@H](C)N)c2c1C` [compound 37, (S)-N*1*-(5,6-Dimethyl-2-pyridin-4-yl-thieno[2,3-d]pyrimidin-4-yl)-propane-1,2-diamine], the IC50 fell in the range of 1 to 10 µM.

As to `Cc1sc2nc(-c3ccncc3)nc(NC[C@@H](C)N)c2c1C` [compound 38, (R)-N*1*-(5,6-Dimethyl-2-pyridin-4-yl-thieno[2,3-d]pyrimidin-4-yl)-propane-1,2-diamine], the 50% inhibitory concentration (IC50) lay within 1 to 10 µM.

In the case of `Cc1c(C(N)=O)sc2nc(-c3ccncc3)nc(NCCN)c12` [compound 39, 4-(2-Amino-ethylamino)-5-methyl-2-pyridin-4-yl-thieno[2,3-d]pyrimidine-6-carboxylic acid amide], the IC50 is 0.1 to 1 µM.

In the case of `CC(C)c1cc2c(NCCN)nc(-c3ccncc3)nc2s1` [compound 40, N*1*-(6-Isopropyl-2-pyridin-4-yl-thieno[2,3-d]pyrimidin-4-yl)-ethane-1,2-diamine], the IC50 was 1 to 10 µM. Consider `CC(C)c1cc2c(NC[C@@H](C)N)nc(-c3ccncc3)nc2s1` [compound 41, (R)-N*1*-(6-Isopropyl-2-pyridin-4-yl-thieno[2,3-d]pyrimidin-4-yl)-propane-1,2-diamine], for which the half-maximal inhibitory concentration (IC50) is 10 to 40 µM.

As to `CC[C@H](N)CNc1nc(-c2ccncc2)nc2sc3c(c12)CCCC3` [compound 68, (S)-N*1*-(2-Pyridin-4-yl-5,6,7,8-tetrahydro-benzo[4,5]thieno[2,3-d]pyrimidin-4-yl)-butane-1,2-diamine], the 50% inhibitory concentration (IC50) is 1 to 10 µM.

On to `CC1CCc2c(sc3nc(-c4ccncc4)nc(NC[C@@H](N)Cc4ccccc4)c23)C1` (stereo partly drawn) [compound 69, (S)-N*1*-(7-Methyl-2-pyridin-4-yl-5,6,7,8-tetrahydro-benzo[4,5]thieno[2,3-d]pyrimidin-4-yl)-3-phenyl-propane-1,2-diamine], for which the IC50 was in the range of 0.1 to 1 µM. `Cc1c(C(N)=O)sc2nc(-c3ccncc3)nc(NC[C@@H](N)Cc3ccccc3)c12` [compound 74, 4-((S)-2-Amino-3-phenyl-propylamino)-5-methyl-2-pyridin-4-yl-thieno[2,3-d]pyrimidine-6-carboxylic acid amide]: the 50% inhibitory concentration (IC50) lay in the range of 0.1 to 1 µM.

In the case of `CC(C)c1cc2c(NC[C@@H](N)Cc3ccccc3)nc(-c3ccncc3)nc2s1` [compound 75, (S)-N*1*-(6-Isopropyl-2-pyridin-4-yl-thieno[2,3-d]pyrimidin-4-yl)-3-phenyl-propane-1,2-diamine], the IC50 is 1 to 10 µM. With `N[C@H](CNc1nc(-c2ccncc2)nc2sc3c(c12)CCCCCC3)Cc1ccccc1` [compound 76, (S)-3-Phenyl-N*1*-(2-pyridin-4-yl-5,6,7,8,9,10-hexahydro-11-thia-1,3-diaza-cycloocta[a]inden-4-yl)-propane-1,2-diamine], the IC50 is 0.1 to 1 µM. Turning to `NCCNc1nc(-c2ccncc2)nc2sc3c(c12)CCCCC3` [compound 84, N*1*-(2-pyridin-4-yl-6,7,8,9-tetrahydro-5H-10-thia-1,3-diaza-benzo[a]azulen-4-yl)-ethane-1,2-diamine], the IC50 lay in the range of 0.1 to 1 µM.

`c1cc(-c2nc(N3CCNCC3)c3c4c(sc3n2)CCCCC4)ccn1` [compound 85, 4-Piperazin-1-yl-2-pyridin-4-yl-6,7,8,9-tetrahydro-5H-10-thia-1,3-diaza-benzo[a]azulene]: the IC50 is 0.1 to 1 µM.

As a reminder, the IC50 is the concentration that inhibits the measured activity by half.
